Results on three molecules are retold here after patent EP0603240B1, “SAFENING HERBICIDAL PYRAZOLYLSULFONYLUREAS” (priority 1991, dated 1993).

In data set [1] the test system is corn. Kind of data set: Example 4, Procedure I: Antidote Nos. 15 and 16 against Herbicide No. 1. Format: in vivo. Here is the method:
(§1) Containers were filled and compacted with a fumigated silt loam top soil to a depth of about 1.3 cm from the top of the container. A first container was designated as an untreated control, a second container was designated as a herbicide control, and a third container was designated as a herbicide + antidote test container. Each of the containers was seeded with a crop species. A measured amount of herbicide dispersed or dissolved in acetone was applied to a measured quantity of soil. To this same quantity of soil treated with herbicide, there was added a measured amount of antidote dispersed or dissolved in acetone. The quantity of soil treated with the herbicide and antidote was thoroughly mixed to incorporate the herbicide and antidote in the soil uniformly. The seed bed in the third container of soil was covered with the soil treated with the herbicide and antidote and the container was leveled. For each test series, the seed beds of the first and second containers were likewise covered by soil layers. the cover layer of the first container was not treated with herbicide or antidote.
(§2) The containers were then placed on a bench in a greenhouse and sub-irrigated as required for the duration of the test. […] Plant response is measured in terms of percent injury. Antidote efficacy is indicated as the difference in plant injury by the herbicide(s) without the antidote and with the antidote.
(§3) This example describes tests with Antidote Nos. 15 and 16 to safen Herbicide No. 1 according to Procedure I using corn and the weeds barnyardgrass and velvetleaf as the test plants.

For data set [2], the system named is corn. Kind of data set: Example 10, Procedure II: Herbicide No. 1 + propachlor (No. 5) with antidotes. It is filed as in vivo. How it is done:
as §1, §2
(§4) This procedure is the same as Procedure I, but modified in the manner that after incorporation of the chemicals (herbicide and antidote) the containers with the covered seedbed were treated with an initial overhead irrigation equivalent to 0.6 cm rainfall, then subsequently sub-irrigated as required on greenhouse benches.
In this test, the safening effect of various antidotes on the herbicidal combination of Herbicide No. 1 and another α-chloroacetanilide co-herbicide, propachlor, (Herbicide No. 5) was investigated. Propachlor is the active ingredient in the commercial herbicide RAMROD®. Procedure II was also used in this test as in the preceding example.

Data set [3] deals with corn. Kind of data set: Example 11, Procedure II: Herbicide No. 1 + metazachlor (No. 14) with antidotes. Format: in vivo. Here is the method:
as §1, §2, §4
In this example, yet another α-chloroacetanilide co-herbicide, metazachlor (Herbicide No. 14) was combined with Herbicide No. 1 for investigation of the effect of various safeners on that composition. Metazachlor is the active ingredient in the commercial herbicide BUTISAN® S, used here as a 500 g/L formulation.

For data set [4], the system named is corn. Kind of data set: Example 5, Procedure I: Herbicide No. 1 + alachlor (No. 7) with Antidote Nos. 15 and 16. It is filed as in vivo. Here is the method: as §1, §2, §3
In the tests described in this example, the same procedure described in Example 4 was performed simultaneously therewith and under the same conditions, except that a co-herbicide, alachlor, was included in the same composition with Herbicide No. 1 and Antidote Nos. 15 and 16. Alachlor (Herbicide No. 7 herein) is the active ingredient in the commercial product LASSO® herbicide.

For data set [5], the system named is corn. Kind of data set: Example 25, greenhouse preemergence test: Antidote Nos. 1 and 2 against Herbicide Nos. 1-3. Particulars: Zea mays, pre-emergence, Preemergence, no antidote. It is filed as in vivo, Corn (Pioneer 3424 variety). Put shortly: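 Greenhouse preemergence application; herbicides as wettable powders, dichlormid as emulsifiable concentrate, naphthalic anhydride as conventional seed coating on corn before planting. Rates in g active ingredient/ha; naphthalic anhydride amount not quantified. Corn injury scored as percent growth inhibition.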

The subject of data set [6] is corn. Briefly: Example 12, Procedure II: Herbicide No. 1 + acetochlor (No. 6) with thirteen antidotes. It is filed as in vivo. Summed up:
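Herbicide and antidote in acetone were mixed into silt loam used to cover the corn seed bed, alongside untreated and herbicide-only controls. After incorporation, an overhead irrigation equal to 0.6 cm rainfall was given, then sub-irrigation in a greenhouse. Injury was scored as percent; safening is the injury difference without versus with antidote.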

The test system of data set [7] is corn. Kind of data set: Example 15, Procedure II: Herbicide No. 1 + butylate (No. 10) with antidotes. Format: in vivo. How it is done:
as §1, §2, §4
This example describes experiments designed to investigate the antidotal efficacy of a plurality of antidotes against the herbicidal action of a combination of Herbicide No. 1 and butylate in corn and the prevalent weeds barnyardgrass and velvetleaf. The antidotes used in these experiments were Nos. 1-10, 12, 13 and 15.
The test procedure used in these experiments was that of Procedure II described above. The antidotes were applied to a soil cover layer by pipet after spraying the herbicides onto the soil, followed by incorporation and overhead irrigation.

In data set [8] the test system is velvetleaf (Abutilon theophrasti). Briefly: Example 9, Procedure II: Herbicide No. 1 + pretilachlor (No. 13) with antidotes. Format: in vivo. How it is done:
as §1, §2, §4
(§5) In the series of greenhouse tests described below, for routine screening purposes the herbicide/antidote compositions were tested in crop/weed combinations involving corn as the crop and either or both of the weeds barnyardgrass (Echinochloa crusgalli), a monocotyledonous weed, and velvetleaf (Abutilon theophrasti), a dicotyledonous weed. In the tables below, these weeds are indicated by the symbols "BYG" and "VL", respectively.
(§6) In this example the safening effect on a composition comprising Herbicide No. 1 and another leading rice herbicide, i.e., Herbicide No. 13, was investigated using the same antidotes and test procedure described in the preceding example. Herbicide No. 13 is pretilachlor, active ingredient used in the commercial rice herbicides RIFIT®, SOFIT® and SOFIT® SUPER.

For data set [9], the system named is barnyardgrass (Echinochloa crusgalli). The description is as above. It is filed as in vivo. How it is done: as §1, §2, §4, §5, §6
The mark [10] stands for this setting: Herbicide No.1 0.14 kg/ha alone, no antidote.
The mark [11] stands for this setting: Herbicide No.1 0.56 kg/ha alone, no antidote.
The mark [12] stands for this setting: Herbicide No.1 1.12 kg/ha alone, no antidote.
The mark [13] stands for this setting: Herbicide No.1 0.14 kg/ha + Herbicide No.13 2.24 kg/ha, antidote rate 2.24 kg/ha.
The mark [14] stands for this setting: Herbicide No.1 0.14 kg/ha + Herbicide No.13 2.24 kg/ha, antidote rate 8.96 kg/ha.
Setting [15] is: Herbicide No.1 0.56 kg/ha + Herbicide No.13 2.24 kg/ha, antidote rate 2.24 kg/ha.
[16] abbreviates: Herbicide No.1 0.56 kg/ha + Herbicide No.13 2.24 kg/ha, antidote rate 8.96 kg/ha.

Structures are written as SMILES.

In the case of `CC1(C)OC(c2ccco2)CN1C(=O)C(Cl)Cl` (centres unmarked) [Antidote No. 15, Oxazolidine, 3-(dichloroacetyl)-5-(2-furanyl)-2,2-dimethyl], the “% Injury Corn” value in the data set with corn [1] (Herb. No. 1 4.48 kg/ha + antidote 0.56 kg/ha) is 10%; in the data set with corn [1] (Herb. No. 1 4.48 kg/ha + antidote 2.24 kg/ha) it was 13%. In addition, the “safening of corn, assessment in words” value was “substantial safening of Herbicide No. 1” in the data set on corn [1] (Herbicide No. 1, Table 4); “best safening effect” with corn [2] (Herbicide Nos. 1 and 5, Table 10); “outperformed the antidotes (2 and 13) of other chemistries” in the data set on corn [3] (Herbicides 1 and 14, Table 11); “substantial safening of corn” in the data set with corn [4] (Herbicide Nos. 1 and 7, Table 5).
As usually defined, the inhibition is the share of the control response that was lost under treatment. In the case of `COC(=O)c1c(Cl)nn(C)c1S(=O)(=O)NC(=O)Nc1nc(OC)cc(OC)n1` [Herbicide No. 1], the inhibition at 0.25 g/ha in the data set on corn [5] (herbicide alone 0.25 G/ha, read-out: % Inhibition Corn) stood at 22.3%. In the data set with corn [5] (herbicide alone 0.74 G/ha), this molecule came in with an inhibition at 0.74 g/ha of 32.3%. Further, the inhibition at 2.5 g/ha in the data set with corn [5] (herbicide alone 2.5 G/ha) was found to be 49.9%. In the data set with corn [6] (Herbicide No. 1 0.56 kg/ha + Herbicide No. 6 2.24 kg/ha, without an antidote), the combined corn injury came out at 45%. In addition, the injury to corn in the data set on corn [6] (Herbicide No. 1 0.56 kg/ha, without an antidote) amounted to 20%. Besides, the “% Injury Corn” value with corn [6] (setting [10]) was 15%; in the data set on corn [6] (setting [11]) it was 20%; with corn [1] (Herb. No. 1 4.48 kg/ha, no antidote, average of two replicates), 85%; in the data set with corn [1] (Herb. No. 1 6.72 kg/ha, no antidote, average of two replicates), 90%; with corn [7] (setting [11]), 20%; with corn [7] (setting [12]) it was 20%. Further, the “% Injury Corn” value in the data set with corn [2] (setting [10]) is listed as 20%; with corn [2] (setting [11]) it was 30%; in the data set on corn [3] (setting [11]) it was 65%; in the data set on corn [3] (setting [12]), 65%; with corn [4] (Herbicide No.1 4.48 + No.7 0.56 kg/ha, no antidote), 95%; in the data set with corn [4] (Herbicide No.1 4.48 + No.7 2.24 kg/ha, no antidote) it was 95%. Further, the “% Injury Corn” value worked out at 93% in the data set with corn [4] (Herbicide No.1 6.72 + No.7 0.56 kg/ha, no antidote) and 95% in the data set with corn [4] (Herbicide No.1 6.72 + No.7 (alachlor) 2.24 kg/ha, no antidote).
`CC1(C)OC(c2ccco2)CN1C(=O)C(Cl)Cl` (centres unmarked) [compound 15]: the “% Injury Corn” value turned out to be 15% in the data set on corn [6] (Herbicide No.1 0.14 kg/ha + Herbicide No.6 2.24 kg/ha, antidote rate 2.24 kg/ha); 10% in the data set with corn [6] (Herbicide No.1 0.14 kg/ha + Herbicide No.6 2.24 kg/ha, antidote rate 8.96 kg/ha); 20% in the data set with corn [6] (Herbicide No.1 0.56 kg/ha + Herbicide No.6 2.24 kg/ha, antidote rate 2.24 kg/ha); 5% with corn [6] (Herbicide No.1 0.56 kg/ha + Herbicide No.6 2.24 kg/ha, antidote rate 8.96 kg/ha); 35% in the data set on corn [1] (Herb. No. 1 6.72 kg/ha + antidote 0.56 kg/ha); 50% in the data set on corn [1] (Herb. No. 1 6.72 kg/ha + antidote 2.24 kg/ha). Besides, the “% Injury Corn” value in the data set with corn [7] (Herbicide No.1 0.56 kg/ha + Herbicide No.10 6.72 kg/ha, antidote rate 2.24 kg/ha) was determined as 20%; with corn [7] (Herbicide No.1 0.56 kg/ha + Herbicide No.10 6.72 kg/ha, antidote rate 8.96 kg/ha), 10%; in the data set with corn [7] (Herbicide No.1 1.12 kg/ha + Herbicide No.10 6.72 kg/ha, antidote rate 2.24 kg/ha), 15%; in the data set with corn [7] (Herbicide No.1 1.12 kg/ha + Herbicide No.10 6.72 kg/ha, antidote rate 8.96 kg/ha) it was 15%; in the data set on corn [2] (Herbicide No.1 0.14 kg/ha + Herbicide No.5 4.48 kg/ha, antidote rate 2.24 kg/ha) it was 0%; in the data set with corn [2] (Herbicide No.1 0.14 kg/ha + Herbicide No.5 4.48 kg/ha, antidote rate 8.96 kg/ha), 0%. Besides, the “% Injury Corn” value was 10% with corn [2] (Herbicide No.1 0.56 kg/ha + Herbicide No.5 4.48 kg/ha, antidote rate 2.24 kg/ha); 10% in the data set with corn [2] (Herbicide No.1 0.56 kg/ha + Herbicide No.5 4.48 kg/ha, antidote rate 8.96 kg/ha); 65% with corn [3] (Herbicide No.1 0.56 kg/ha + Herbicide No.14 3.36 kg/ha, antidote rate 2.24 kg/ha); 65% in the data set with corn [3] (Herbicide No.1 0.56 kg/ha + Herbicide No.14 3.36 kg/ha, antidote rate 8.96 kg/ha); 25% in the data set on corn [3] (Herbicide No.1 1.12 kg/ha + Herbicide No.14 3.36 kg/ha, antidote rate 2.24 kg/ha); 40% in the data set with corn [3] (Herbicide No.1 1.12 kg/ha + Herbicide No.14 3.36 kg/ha, antidote rate 8.96 kg/ha). Besides, the “% Injury Corn” value was determined as 23% in the data set with corn [4] (Herbicide No.1 4.48 + No.7 0.56 kg/ha + antidote 0.56 kg/ha); 40% in the data set on corn [4] (Herbicide No.1 4.48 + No.7 0.56 kg/ha + antidote 2.24 kg/ha); 30% with corn [4] (Herbicide No.1 4.48 + No.7 2.24 kg/ha + antidote 0.56 kg/ha); 23% with corn [4] (Herbicide No.1 4.48 + No.7 2.24 kg/ha + antidote 2.24 kg/ha); 25% with corn [4] (Herbicide No.1 6.72 + No.7 0.56 kg/ha + antidote 0.56 kg/ha); 25% in the data set on corn [4] (Herbicide No.1 6.72 + No.7 0.56 kg/ha + antidote 2.24 kg/ha). For the same molecule, the results for the “% Injury Corn” value in the data set with corn [4] (Herbicide No.1 6.72 + No.7 2.24 kg/ha + antidote 0.56 kg/ha) and with corn [4] (Herbicide No.1 6.72 + No.7 2.24 kg/ha + antidote 2.24 kg/ha) were 45% and 50%, respectively. The “% Injury VL” value in data set [8] (setting [13]) is listed as 60%; in [8] (setting [14]), 90%; in data set [8] (setting [15]) it was 85%; in data set [8] (setting [16]) it was 75%. The “% Injury BYG” value in data set [9] (setting [13]) is 100%; in data set [9] (setting [14]) it was 100%; in data set [9] (setting [15]), 99%; in data set [9] (setting [16]), 100%.
